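Method: 48-hour compound exposure of cells in 96-well plates, five concentrations, linear interpolation of endpoints. Abbreviation: GI50, concentration required for 50% inhibition of growth.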 Calls of active or inactive are those of the source. Cut-off read from the data, not from the text of the source: active = GI50 up to about 1.1 µM and inactive = higher.
How the values were obtained:
Assay in all cases: inhibition of tumour cell growth, NCI panel, 48 h
OVCAR-3 = test system: OVCAR-3
MCF7 = test system: MCF7
SF-295 = test system: SF-295
EKVX = test system: EKVX
HT-29 = test system: HT-29
A549 = test system: A549
UACC-257 = test system: UACC-257
SNB-75 = test system: SNB-75
MDA-MB-231 = test system: MDA-MB-231
NCI-H522 = test system: NCI-H522
BT-549 = test system: BT-549
NCI-H226 = test system: NCI-H226
RXF 393 = test system: RXF 393
K562 = test system: K562
U-251 = test system: U-251
PC-3 = test system: PC-3
RPMI-8226 = test system: RPMI-8226
Malme-3M = test system: Malme-3M
HL-60 = test system: HL-60
Hs-578T = test system: Hs-578T

Measured: GI50

CC(C)=CCC/C(C)=C/CCC(C(=O)COCc1ccccc1)P1(=O)OC(C)(C)CN1C(C)(C)C (configuration not stated)
inactive: OVCAR-3 37.6 µM | MCF7 33.8 µM | SF-295 46.6 µM | EKVX > 100 µM | HT-29 33.2 µM | A549 35.6 µM | UACC-257 84.1 µM | SNB-75 28.9 µM | MDA-MB-231 > 100 µM | NCI-H522 32.6 µM | BT-549 > 100 µM | NCI-H226 30.6 µM | RXF 393 87.5 µM | K562 31.9 µM | U-251 > 100 µM | PC-3 39.3 µM

COC(=O)c1cc(-c2ccc(-c3ccc(O)cc3)cc2)cc(-c2ccc(-c3ccc(O)cc3)cc2)c1
inactive: OVCAR-3 12 µM | MCF7 4.48 µM | SF-295 6.75 µM | EKVX 11.9 µM | A549 8.45 µM | UACC-257 14.1 µM | SNB-75 7.74 µM | MDA-MB-231 17.9 µM | NCI-H522 2.62 µM | BT-549 13.7 µM | NCI-H226 12.7 µM | RPMI-8226 10.7 µM | RXF 393 5.62 µM | K562 4.51 µM | PC-3 10.8 µM

CC(=O)c1sc2c(c1O)c(=O)n(-c1ccccc1)c(=S)n2-c1ccccc1
inactive: OVCAR-3 > 100 µM | MCF7 > 100 µM | Malme-3M > 100 µM | HL-60 > 100 µM | SF-295 > 100 µM | HT-29 > 100 µM | A549 > 100 µM | UACC-257 > 100 µM | SNB-75 58.7 µM | MDA-MB-231 > 100 µM | NCI-H522 > 100 µM | BT-549 95.3 µM | NCI-H226 > 100 µM | RPMI-8226 > 100 µM | RXF 393 > 100 µM | K562 > 100 µM | U-251 > 100 µM | Hs-578T > 100 µM

NCCC1(N)CCNCC1
inactive: Malme-3M > 100 µM | HL-60 > 100 µM | SF-295 > 100 µM | EKVX > 100 µM | HT-29 > 100 µM | A549 > 100 µM | UACC-257 > 100 µM | SNB-75 13.7 µM | MDA-MB-231 > 100 µM | NCI-H522 > 100 µM | BT-549 > 100 µM | NCI-H226 > 100 µM | RPMI-8226 > 100 µM | RXF 393 > 100 µM | K562 > 100 µM | U-251 > 100 µM | PC-3 > 100 µM | Hs-578T > 100 µM

COC(=O)C1(Cc2ccc3c(c2)CCC3)Cc2ccccc2C1=O (configuration not stated)
inactive: OVCAR-3 14.5 µM | MCF7 7.06 µM | Malme-3M 17.5 µM | HL-60 3.12 µM | SF-295 9.98 µM | EKVX 17.3 µM | HT-29 5.46 µM | A549 21.1 µM | UACC-257 18.5 µM | SNB-75 10.8 µM | MDA-MB-231 27.2 µM | NCI-H522 7.66 µM | BT-549 11.5 µM | NCI-H226 18.2 µM | RPMI-8226 9.91 µM | K562 3.31 µM | U-251 13.4 µM | PC-3 7.69 µM | Hs-578T 13.4 µM

CCC12CCCN3CCc4c(n(c5ccccc45)C(O)(C(=O)OC)C1)C32 (configuration not stated)
inactive: OVCAR-3 > 100 µM | MCF7 > 100 µM | Malme-3M > 100 µM | HL-60 > 100 µM | SF-295 > 100 µM | EKVX > 100 µM | HT-29 > 100 µM | A549 > 100 µM | UACC-257 > 100 µM | SNB-75 > 100 µM | MDA-MB-231 > 100 µM | NCI-H522 > 100 µM | BT-549 > 100 µM | NCI-H226 > 100 µM | RPMI-8226 > 100 µM | U-251 > 100 µM | PC-3 > 100 µM | Hs-578T > 100 µM

COC(=O)[C@@H]1O[C@]12C(CO[Si](C)(C)C(C)(C)C)OC(n1ccc(=O)[nH]c1=O)C2O[Si](C)(C)C(C)(C)C (some centres not stated)
active: NCI-H226 0.435 µM
inactive: OVCAR-3 16.7 µM | MCF7 12.4 µM | HL-60 10.1 µM | SF-295 21.8 µM | EKVX 25.9 µM | HT-29 7.93 µM | A549 32.7 µM | UACC-257 22.1 µM | SNB-75 > 100 µM | MDA-MB-231 28.2 µM | NCI-H522 19.7 µM | BT-549 17.5 µM | RPMI-8226 8.85 µM | K562 25.5 µM | U-251 26.2 µM | PC-3 20.9 µM

COc1ccc(C2SCC(=O)N2NC(=O)c2ccc(NC(C)=O)cc2)cc1 (configuration not stated)
inactive: OVCAR-3 > 100 µM | MCF7 > 100 µM | SF-295 > 100 µM | EKVX > 100 µM | HT-29 > 100 µM | A549 > 100 µM | UACC-257 > 100 µM | SNB-75 > 100 µM | MDA-MB-231 26.5 µM | BT-549 74.1 µM | NCI-H226 > 100 µM | RPMI-8226 > 100 µM | RXF 393 > 100 µM | K562 > 100 µM | U-251 40.6 µM | Hs-578T > 100 µM

Cc1ccc(C(=O)NCc2ccccc2)cc1/N=N/N(C)C
inactive: OVCAR-3 44.3 µM | MCF7 > 100 µM | Malme-3M > 100 µM | HL-60 37.2 µM | SF-295 > 71.9 µM | EKVX > 100 µM | HT-29 > 58.7 µM | A549 > 77.8 µM | UACC-257 21.4 µM | MDA-MB-231 > 100 µM | NCI-H522 27.7 µM | BT-549 > 100 µM | NCI-H226 > 100 µM | RPMI-8226 40.9 µM | K562 > 100 µM | U-251 > 100 µM | PC-3 71.3 µM | Hs-578T > 100 µM

Cc1oc2c(c1C)S(=O)(=O)C(C#N)=C(c1ccccc1)N2
inactive: OVCAR-3 > 100 µM | MCF7 > 100 µM | Malme-3M 63.5 µM | SF-295 > 100 µM | EKVX > 100 µM | HT-29 > 100 µM | A549 > 100 µM | UACC-257 > 100 µM | SNB-75 > 100 µM | MDA-MB-231 > 100 µM | NCI-H522 > 100 µM | BT-549 > 100 µM | NCI-H226 > 100 µM | RPMI-8226 > 100 µM | K562 > 100 µM | U-251 > 100 µM | PC-3 > 100 µM | Hs-578T > 100 µM

COc1cc2nc(-c3cccs3)nc(Nc3cccc(Cl)c3)c2cc1OC
inactive: OVCAR-3 52.8 µM | MCF7 53.6 µM | Malme-3M 27.7 µM | HL-60 > 100 µM | SF-295 22.5 µM | EKVX 88.9 µM | HT-29 > 100 µM | A549 50.9 µM | UACC-257 > 100 µM | SNB-75 36.3 µM | MDA-MB-231 > 100 µM | NCI-H522 64.6 µM | BT-549 59.2 µM | NCI-H226 50.6 µM | RPMI-8226 51.9 µM | K562 > 100 µM | U-251 35.9 µM | PC-3 21.1 µM | Hs-578T 31.6 µM
